“Also recorded” adds a separate entry of the source.
Assays:
[1] = Bile acid quantification in mouse cecal contents by UPLC-MS; settings: mice fed 0.3% (w/w) 3-oxoLCA chow for one week
Excerpt: Data are shown as the mean±standard deviation by unpaired t-test with 2-tailed p-value.

[2] = tested on: colon lamina propria Th17 cells; assay: Citrobacter rodentium infection of germ-free mice; type: in vivo, mouse; settings: germ-free B6 mice, C. rodentium, 0.3% diet
Excerpt: For the box plots (a, b), the three horizontal lines of the box represent the third quartile, median and first quartile, respectively from top to bottom. […] Mice were fed an autoclaved diet with or without 3-oxoLCA (0.3%) (n=9 mice/group).

CD4+ T cells = tested on: CD4+ T cells
Excerpt: Representative FACS plots of CD4^+ T cells cultured for 3 days and stained intracellularly for FoxP3 (e). Quantification of FoxP3^+ and viable T cells after 3-day culture (f) (n=2/group). n, number of biologically independent samples. Data are representative of two independent experiments (b, d). Data in (c) are shown as the mean±standard deviation.
Naïve CD4^+ T cells were isolated from FoxP3-IRES-GFP mice. d, Flow cytometry of CD4^+ T cells stained intracellularly for FoxP3. Naïve CD4^+ T cells isolated from WT, CNS1, CNS2 or CNS3 knockout mice (n=3/group) were cultured with anti-CD3/28 and IL-2, LCA (20 μM), TGF-β (0.05 ng/ml) and additional retinoic acid (RA; 1 ng/ml). e and f, Flow cytometry (e) and its quantification (f) of CD4^+ T cells stained intracellularly for FoxP3. […] Data are representative of two independent experiments (c, d). Data are shown as the mean±standard deviation by unpaired t-test with 2-tailed p-value.
Flow Cytometry. Cells harvested from in vitro culture or in vivo mice experiments were stimulated with 50 ng/mL PMA (Phorbol 12-myristate 13-acetate, Sigma) and 1 μM ionomycin (Sigma) in the presence of GolgiPlug (BD) for 4 h to determine cytokine expression. After stimulation, cells were stained with cell surface marker antibodies and LIVE/DEAD Fixable dye, Aqua, to exclude dead cells, fixed and permeabilized with a FoxP3/Transcription factor staining kit (eBioscience), followed by staining with cytokine- and/or transcription factor-specific antibodies. All flow cytometry analyses were performed on an LSR II flow cytometer (BD) and data were analyzed with FlowJo software (TreeStar).

naïve CD4+ T cells = assay: Cell proliferation assay (CFSE); type: cell-based, mouse; settings: 3 days, vs DMSO
Description: Data are representative of two independent experiments (b, d).
Cell Proliferation Assay. Naïve CD4^+ T cells were labeled with 1 μM carboxyfluorescein succinimidyl ester (CFSE, BioLegend) and cultured for 3 days prior to FACS analysis.

[3] = target: T1, recombinant human RORγt ligand-binding domain (LBD) (Homo sapiens, UniProt P51449); assay: Microscale thermophoresis assay; settings: MST, read-out: equilibrium dissociation constant (Kd)
T1 sequence (P51449 269-508 limits assumed): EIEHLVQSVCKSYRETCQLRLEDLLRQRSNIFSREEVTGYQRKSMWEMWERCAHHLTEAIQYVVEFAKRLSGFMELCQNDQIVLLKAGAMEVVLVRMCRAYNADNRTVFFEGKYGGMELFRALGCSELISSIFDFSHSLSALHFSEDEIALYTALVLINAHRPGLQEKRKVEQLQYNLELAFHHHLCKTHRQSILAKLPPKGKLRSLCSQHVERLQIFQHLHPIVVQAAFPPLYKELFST
Description: We next examined if 3-oxoLCA physically interacts with the RORγt protein in vitro. A microscale thermophoresis (MST) assay was performed with recombinant human RORγt ligand-binding domain (LBD). […] Next, we examined if 3-oxoLCA modulates the transcriptional activity of RORγt. We assayed the effect of the bile acids on firefly luciferase expression directed by a fusion protein of RORγt and Gal4-DBD (DNA-binding domain) in human embryonic kidney (HEK) 293 cells^14.
Microscale Thermophoresis Assay. The binding affinity of the compounds with RORγ ligand-binding domain (LBD) was analyzed by microscale thermophoresis (MST). Purified RORγ-LBD was labeled with the Monolith NT™ Protein Labeling Kit RED (NanoTemper Technologies). Serially-diluted compounds, with concentrations of 1 mM to 20 nM, were mixed with 55 nM labeled RORγ-LBD at room temperature and loaded into Monolith™ standard-treated capillaries. Binding was measured by monitoring the thermophoresis with 20% LED power and ‘Medium’ MST power on a Monolith NT.115 instrument (Nano Temper Technologies) with the following time setting: 5s Fluo, Before; 20s MST On; and 5s Fluo, After. Kd values were fitted using the NT Analysis software (Nano Temper Technologies).

average concentration in cecal contents [1]: 24 picomol/mg of wet mass
Kd [3]: ~1 µM
Compound: C[C@H](CCC(=O)O)[C@H]1CC[C@H]2[C@@H]3CC[C@@H]4CC(=O)CC[C@]4(C)[C@H]3CC[C@]12C [3-oxoLCA, 3-oxolithocholic acid]
Th17 cell induction in the colon [2]: reduced Th17 cell induction in the colons of germ-free B6 mice infected with Citrobacter rodentium
cell viability (CD4+ T cells): do not significantly affect cell proliferation, cell viability
cell proliferation (naïve CD4+ T cells): do not significantly affect cell proliferation; also recorded: did not affect cell proliferation

— patent US12103946B2, “Steroid compounds as Treg modulators and uses thereof” (New York University, priority 2018, dated 2024)
